Assay results taken from patent US20240051921A1, “CRYSTALLINE FORM OF A PHENOLIC TRPV1 AGONIST PRODRUG” (Concentric Analgesics, Inc., priority 2020, published 2024).

Assay: Dynamic vapor sorption (DVS) test, form stability as a function of relative humidity
Format: physicochemical
Conditions: 25° C.
Procedure: DVS test was performed using an SMS (Surface Measurement Systems) DVS Intrinsic instrument. The relative humidity at 25° C. were calibrated against deliquescence point of LiCl, Mg(NO3)2 and KCl. The following instrument parameters were used:
DVS test was performed on crystalline Compound 1, Form 1, to investigate its form stability as a function of relative humidity. The DVS test was first conducted at 25° C. with humidity cycled between 0% RH-95% RH-0% RH.

CNCC1CCCCN1C(=O)Oc1ccc(CNC(=O)CCCC/C=C/C(C)C)cc1OC.Cl (stereo not drawn) [Compound 1, Form 1, (E)-2-methoxy-4-((8-methylnon-6-enamido)methyl)phenyl 2-((methylamino)methyl)piperidine-1-carboxylate hydrochloride]
crystal form change before and after DVS test (XRPD) (0% RH-95% RH-0% RH, checked by XRPD): no form change occurred
moisture content (DVS) (at 95% RH, cycle 0% RH-95% RH-0% RH): 16.5 % wt
moisture content, relative stable platform (DVS) (between 20% RH and 70% RH): ~3.5 % wt
